Experimental data from patent publication US20250018046A1, “COMPOUNDS FOR TARGETING DEGRADATION OF IRAK4 PROTEINS” (BIOGEN MA INC, priority 2021, published 2025).

What follows are compounds tested against T1, IRAK4 (Homo sapiens, UniProt Q9NWZ3) (assay: IRAK4 degradation assay using the HiBiT Method). Conditions: 293T cells expressing HiBiT-tagged IRAK4; 6-hour incubation; Nano-Glo HiBiT Lytic Assay luminescence.
T1 construct: knocking-in a HiBiT fusion tag into the C-terminal of the IRAK4 gene in 293T cells; host or cells: 293T cells, knock-in of HiBiT at the endogenous IRAK4 locus
T1 sequence (Q9NWZ3 1-460): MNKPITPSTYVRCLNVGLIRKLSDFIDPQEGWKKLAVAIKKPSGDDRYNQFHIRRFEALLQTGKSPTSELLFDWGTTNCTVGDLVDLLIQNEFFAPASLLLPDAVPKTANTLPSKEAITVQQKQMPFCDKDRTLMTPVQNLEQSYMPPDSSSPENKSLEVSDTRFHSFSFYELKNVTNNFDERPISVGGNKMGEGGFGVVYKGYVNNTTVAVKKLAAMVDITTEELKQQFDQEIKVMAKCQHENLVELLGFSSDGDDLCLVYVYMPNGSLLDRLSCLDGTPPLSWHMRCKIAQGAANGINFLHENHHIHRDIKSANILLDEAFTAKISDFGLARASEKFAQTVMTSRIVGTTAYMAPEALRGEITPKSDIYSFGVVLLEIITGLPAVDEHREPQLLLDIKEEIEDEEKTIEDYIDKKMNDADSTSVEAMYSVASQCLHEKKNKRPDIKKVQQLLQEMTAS
Type: cell-based
In short: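 HEK293T cells with HiBiT knocked into the IRAK4 C-terminus, 10,000 cells per well, treated with an 11-point half-log series […] in duplicate for 6 hours at 37° C., 5% CO2. Remaining IRAK4 quantified by Nano-Glo HiBiT lytic luminescence against DMSO controls.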

DC50 | SMILES
100 to 500 nM | CC(C)Oc1cc2nc(C3CCN(CC(=O)N4CCC(c5ccc(NC6CCC(=O)NC6=O)cc5)CC4)CC3)cn2cc1NC(=O)c1ccccc1 (stereo not drawn) [Example 56, N-[2-[1-[2-[4-[4-[(2,6-dioxo-3-piperidyl)amino]phenyl]-1-piperidyl]-2-oxo-ethyl]-4-piperidyl]-7-isopropoxy-imidazo[1,2-a]pyridin-6-yl]benzamide]
< 10 nM | CC(C)Oc1cc2nc(C3CCN(CC(=O)N4CCC(c5ccc(NC6CCC(=O)NC6=O)cc5)CC4)CC3)cn2cc1NC(=O)c1cnn2cccnc12 (stereo not drawn) [Example 57, N-(2-(1-(2-(4-(4-((2,6-dioxopiperidin-3-yl)amino)phenyl)piperidin-1-yl)-2-oxoethyl)piperidin-4-yl)-7-isopropoxyimidazo[1,2-a]pyridin-6-yl)pyrazolo[1,5-a]pyrimidine-3-carboxamide]
10 to 100 nM | Cc1cc(-c2nc(C(=O)Nc3cn4cc(C5CCN(CC(=O)N6CCC(c7ccc(NC8CCC(=O)NC8=O)cc7)CC6)CC5)nc4cc3OC(C)C)co2)ccn1 (stereo not drawn) [Example 58, N-(2-(1-(2-(4-(4-((2,6-dioxopiperidin-3-yl)amino)phenyl)piperidin-1-yl)-2-oxoethyl)piperidin-4-yl)-7-isopropoxyimidazo[1,2-a]pyridin-6-yl)-2-(2-methylpyridin-4-yl)oxazole-4-carboxamide]
10 to 100 nM | CC(C)Oc1cc2nc(C3CCN(CC(=O)N4CCC(c5ccc(NC6CCC(=O)NC6=O)cc5)CC4)CC3)cn2cc1NC(=O)c1ccc(F)cc1F (stereo not drawn) [Example 59, N-(2-(1-(2-(4-(4-((2,6-dioxopiperidin-3-yl)amino)phenyl)piperidin-1-yl)-2-oxoethyl)piperidin-4-yl)-7-isopropoxyimidazo[1,2-a]pyridin-6-yl)-2,4-difluorobenzamide]
10 to 100 nM | CC(C)Oc1cc2nc(C3CCN(CC(=O)N4CCC(c5ccc(NC6CCC(=O)NC6=O)cc5)CC4)CC3)cn2cc1NC(=O)c1ccn(C)n1 (stereo not drawn) [Example 60, N-[2-[1-[2-[4-[4-[(2,6-dioxo-3-piperidyl)amino]phenyl]-1-piperidyl]-2-oxo-ethyl]-4-piperidyl]-7-isopropoxy-imidazo[1,2-a]pyridin-6-yl]-1-methyl-pyrazole-3-carboxamide]
10 to 100 nM | CC(C)Oc1cc2nc(C3CCN(CC(=O)N4CCC(c5ccc(NC6CCC(=O)NC6=O)cc5)CC4)CC3)cn2cc1NC(=O)c1cccc(C(F)F)c1 (stereo not drawn) [Example 61, 3-(difluoromethyl)-N-(2-(1-(2-(4-(4-((2,6-dioxopiperidin-3-yl)amino)phenyl)piperidin-1-yl)-2-oxoethyl)piperidin-4-yl)-7-isopropoxyimidazo[1,2-a]pyridin-6-yl)benzamide]
100 to 500 nM | CC(C)Oc1cc2nc(C3CCN(CCN4CCC(c5ccc(CN6CCC(=O)NC6=O)cc5)CC4)CC3)cn2cc1NC(=O)c1cccc(C(F)(F)F)n1 [Example 62, N-[2-[1-[2-[4-[4-[(2,4-dioxohexahydropyrimidin-1-yl)methyl]phenyl]-1-piperidyl]ethyl]-4-piperidyl]-7-isopropoxy-imidazo[1,2-a]pyridin-6-yl]-6-(trifluoromethyl)pyridine-2-carboxamide]
100 to 500 nM | CC(C)Oc1cc2nc(C3CCN(CCN4CCC(c5ccc(C6CCC(=O)NC6=O)cc5F)CC4)CC3)cn2cc1NC(=O)c1cccc(C(F)(F)F)n1 (stereo not drawn) [Example 64, N-[2-[1-[2-[4-[4-(2,6-dioxo-3-piperidyl)-2-fluoro-phenyl]-1-piperidyl]ethyl]-4-piperidyl]-7-isopropoxy-imidazo[1,2-a]pyridin-6-yl]-6-(trifluoromethyl)pyridine-2-carboxamide]
10 to 100 nM | CC(C)Oc1cc2nc(C3CCN(CCN4CCN(c5ccc(C6CCC(=O)NC6=O)cc5)CC4)CC3)cn2cc1NC(=O)c1cccc(C(F)(F)F)n1 (stereo not drawn) [Example 65, N-[2-[1-[2-[4-[4-(2,6-dioxo-3-piperidyl)phenyl]piperazin-1-yl]ethyl]-4-piperidyl]-7-isopropoxy-imidazo[1,2-a]pyridin-6-yl]-6-(trifluoromethyl)pyridine-2-carboxamide]
100 to 500 nM | CC(C)Oc1cc2nc(C3CCN(CCN4CCC(c5ccc(NC6CCC(=O)NC6=O)cc5)CC4)CC3)cn2cc1NC(=O)c1cccc(C(F)(F)F)n1 (stereo not drawn) [Example 66, N-[2-[1-[2-[4-[4-[(2,6-dioxo-3-piperidyl)amino]phenyl]-1-piperidyl]ethyl]-4-piperidyl]-7-isopropoxy-imidazo[1,2-a]pyridin-6-yl]-6-(trifluoromethyl)pyridine-2-carboxamide]
100 to 500 nM | CC(C)Oc1cc2nc(C3CCN(CCN4CCC(c5ccc(NC6CCC(=O)NC6=O)cc5F)CC4)CC3)cn2cc1NC(=O)c1cccc(C(F)(F)F)n1 (stereo not drawn) [Example 67, N-[2-[1-[2-[4-[4-[(2,6-dioxo-3-piperidyl)amino]-2-fluoro-phenyl]-1-piperidyl]ethyl]-4-piperidyl]-7-isopropoxy-imidazo[1,2-a]pyridin-6-yl]-6-(trifluoromethyl)pyridine-2-carboxamide]
10 to 100 nM | CC(C)Oc1cc2nc(C3CCN(CCc4ccc(NC5CCC(=O)NC5=O)cc4)CC3)cn2cc1NC(=O)c1cccc(C(F)(F)F)n1 (stereo not drawn) [Example 68, N-[2-[1-[2-[4-[(2,6-dioxo-3-piperidyl)amino]phenyl]ethyl]-4-piperidyl]-7-isopropoxy-imidazo[1,2-a]pyridin-6-yl]-6-(trifluoromethyl)pyridine-2-carboxamide]
100 to 500 nM | CC(C)Oc1cc2nc(C3CCN(CCCCc4ccc(NC5CCC(=O)NC5=O)cc4)CC3)cn2cc1NC(=O)c1cccc(C(F)(F)F)n1 (stereo not drawn) [Example 69, N-[2-[1-[4-[4-[(2,6-dioxo-3-piperidyl)amino]phenyl]butyl]-4-piperidyl]-7-isopropoxy-imidazo[1,2-a]pyridin-6-yl]-6-(trifluoromethyl)pyridine-2-carboxamide]
100 to 500 nM | CC(C)Oc1cc2nc(C3CCN(CCCCCCc4ccc(NC5CCC(=O)NC5=O)cc4)CC3)cn2cc1NC(=O)c1cccc(C(F)(F)F)n1 (stereo not drawn) [Example 70, N-[2-[1-[6-[4-[(2,6-dioxo-3-piperidyl)amino]phenyl]hexyl]-4-piperidyl]-7-isopropoxy-imidazo[1,2-a]pyridin-6-yl]-6-(trifluoromethyl)pyridine-2-carboxamide]
100 to 500 nM | CC(C)Oc1cc2nc(CCCNC(=O)CN3CCC(c4ccc(NC5CCC(=O)NC5=O)cc4)CC3)cn2cc1NC(=O)c1cccc(C(F)(F)F)n1 (stereo not drawn) [Example 71, N-[2-[3-[[2-[4-[4-[(2,6-dioxo-3-piperidyl)amino]phenyl]-1-piperidyl]acetyl]amino]propyl]-7-isopropoxy-imidazo[1,2-a]pyridin-6-yl]-6-(trifluoromethyl)pyridine-2-carboxamide]
100 to 500 nM | CC(C)Oc1cc2nc(CCCCCCN3CCC(c4ccc(NC5CCC(=O)NC5=O)cc4)CC3)cn2cc1NC(=O)c1cccc(C(F)(F)F)n1 (stereo not drawn) [Example 72, N-[2-[6-[4-[4-[(2,6-dioxo-3-piperidyl)amino]phenyl]-1-piperidyl]hexyl]-7-isopropoxy-imidazo[1,2-a]pyridin-6-yl]-6-(trifluoromethyl)pyridine-2-carboxamide]
100 to 500 nM | CC(C)Oc1cc2nc([C@H](Cc3ccccc3)NC(=O)CN3CCC(c4ccc(C5CCC(=O)NC5=O)cc4)CC3)cn2cc1NC(=O)c1cccc(C(F)(F)F)n1 (stereo partly drawn) [Example 73, N-[2-[(1S)-1-[[2-[4-[4-(2,6-dioxo-3-piperidyl)phenyl]-1-piperidyl]acetyl]amino]-2-phenyl-ethyl]-7-isopropoxy-imidazo[1,2-a]pyridin-6-yl]-6-(trifluoromethyl)pyridine-2-carboxamide]
100 to 500 nM | CC(C)Oc1cc2nc(CC3CN(C(=O)CN4CCC(c5ccc(C6CCC(=O)NC6=O)cc5)CC4)C3)cn2cc1NC(=O)c1cccc(C(F)(F)F)n1 (stereo not drawn) [Example 74, N-[2-[[1-[2-[4-[4-(2,6-dioxo-3-piperidyl)phenyl]-1-piperidyl]acetyl]azetidin-3-yl]methyl]-7-isopropoxy-imidazo[1,2-a]pyridin-6-yl]-6-(trifluoromethyl)pyridine-2-carboxamide]
10 to 100 nM | CC(C)Oc1cc2nc(C3CCN(C(=O)CN4CCC(c5ccc(C6CCC(=O)NC6=O)cc5)CC4)C3)cn2cc1NC(=O)c1cccc(C(F)(F)F)n1 (stereo not drawn) [Example 75, N-[2-[1-[2-[4-[4-(2,6-dioxo-3-piperidyl)phenyl]-1-piperidyl]acetyl]pyrrolidin-3-yl]-7-isopropoxy-imidazo[1,2-a]pyridin-6-yl]-6-(trifluoromethyl)pyridine-2-carboxamide]
100 to 500 nM | CC(C)Oc1cc2nc(C3CCCN(C(=O)CN4CCC(c5ccc(C6CCC(=O)NC6=O)cc5)CC4)C3)cn2cc1NC(=O)c1cccc(C(F)(F)F)n1 (stereo not drawn) [Example 76, N-[2-[1-[2-[4-[4-(2,6-dioxo-3-piperidyl)phenyl]-1-piperidyl]acetyl]-3-piperidyl]-7-isopropoxy-imidazo[1,2-a]pyridin-6-yl]-6-(trifluoromethyl)pyridine-2-carboxamide]
100 to 500 nM | CC(C)Oc1cc2nc(C3CN(C(=O)CN4CCC(c5ccc(C6CCC(=O)NC6=O)cc5)CC4)C3)cn2cc1NC(=O)c1cccc(C(F)(F)F)n1 (stereo not drawn) [Example 77, N-[2-[1-[2-[4-[4-(2,6-dioxo-3-piperidyl)phenyl]-1-piperidyl]acetyl]azetidin-3-yl]-7-isopropoxy-imidazo[1,2-a]pyridin-6-yl]-6-(trifluoromethyl)pyridine-2-carboxamide]
